{
  "source": "patent US20250019379A1",
  "about": "“NEW CRYSTAL FORM OF COMPOUND, AND PREPARATION METHOD THEREFOR AND USE THEREOF” (E-nitiate Biopharmaceuticals (Hangzhou) Co., Ltd, priority 2021, published 2025)",
  "format_in_all_cases": "physicochemical",
  "key": {"[1]": {"test": "Thermodynamic analysis experiment (heating, XRPD)", "method": "Crystalline form H and crystalline form S were heated to appropriate temperatures under N2 protection, and after cooling to room temperature, the XRPD of the solids was measured."}, "[2]": {"test": "Influencing factors test (light, high temperature, high humidity)", "conditions": "5000Lx light, 60° C., 90% RH±5% RH; 0, 5, 10, 30 days", "method": "The stability of the crystalline form of the present invention under accelerated test conditions was determined. […] Stability testing was conducted under the following conditions, and samples were taken on the 0th day, the 5th day, the 10th day and the 30th day. The content, total impurities, and XRPD patterns of the samples were recorded and compared with the initial data."}, "[3]": {"test": "Crystal form stability test", "method": "The crystalline form M was stored at a temperature of 25° C. and a humidity of 55% RH for 35 days, and the XRPD of the solid was tested."}, "[4]": {"test": "Dynamic solubility in biological solvents at 37° C.", "conditions": "37° C.", "method": "(1) Preparation method of FaSSIF: a. Weigh 42 mg NaOH, 395 mg NaH2PO4·H2O and 619 mg NaCl in a 100 mL beaker, add 90 mL deionized water to dissolve: b. Adjust the pH to […]; Dilute to 100 mL with deionized water to obtain FaSSIF blank solvent: c. Weigh 224 mg of Simulated Intestinal Fluid (hereinafter referred to as SIF powder), add 50 mL of the above FaSSIF blank solvent, and stir until completely dissolved; use Dilute the FaSSIF blank solvent to 100 mL to prepare the solvent FaSSIF; d. Let it stand at room temperature for 2 hours before use.\n(2) Preparation method of FeSSIF: a. Weigh 404 mg NaOH, 865 mg glacial acetic acid and 1189 mg NaCl in a 100 mL beaker, add 90 mL deionized water to dissolve: b. Adjust the pH to 5.0 with 1N NaOH or 1N HCl; Dilute to 100 mL with deionized water to obtain FeSSIF blank solvent; c. Weigh 1120 mg SIF powder and add 50 mL of the above FeSSIF blank solvent, stir until dissolved: dilute to 100 mL with FeSSIF blank solvent to obtain FeSSIF solvent d. Let it stand at room temperature before use to ensure a clear solution.\n(3) Preparation method of SGF: a. Weigh 200 mg NaCl in a 100 mL beaker, add 90 mL deionized water to dissolve; b. Adjust the pH to 1.6 with 1N HCl; dilute to 100 mL with deionized water to obtain SGF Blank solvent; c. Weigh 6 mg SIF powder and add 50 mL of the above SGF blank solvent, stir until dissolved: dilute to 100 mL with SGF blank solvent to prepare the solvent SGF: d. Let it stand at room temperature before use to ensure a clear solution.\n(100 rpm). Take 1.3 mL of the suspension (or clarified solution) respectively at 1, 4, and 24 hours, and centrifuge the suspension for 5 minutes. The solid obtained is used for crystal form detection (XRPD), and the supernatant/clarified solution is filtered for solubility testing and pH test.\nSolubility data of the samples were collected using a high-performance liquid chromatograph equipped with an image diode array detector."}, "[5]": {"test": "Solid state stability (HPLC purity, XRPD)", "conditions": "for Purity (%): open", "method": "Purity testing (via HPLC) and crystal form detection (via XRPD) were performed on starting samples, samples stored for one week, and samples stored for two weeks."}},
  "data": [
    {"smiles": "C[C@@H](O)c1nc2cnc3[nH]ccc3c2n1N1CCC(CC#N)CC1", "note": "[Crystalline form H, (R)-2-(1-(2-(1-hydroxyethyl)imidazo[4,5-d]pyrrolo[2,3-b]pyridine-1(6H)-yl)piperidin-4-yl)acetonitrile]", "values": [
      {"measurement": "crystal form after heating (XRPD)", "setting": "[1]; heated to 162° C. under N2, cooled to room temperature", "result": "partially converted into crystalline form A"},
      {"measurement": "crystal form after heating (XRPD)", "setting": "[1]; heated to 210° C. under N2, cooled to room temperature", "result": "completely converted into crystalline form A"},
      {"measurement": "stability under accelerated test conditions (content, total impurities, XRPD)", "setting": "[2]", "result": "better stability"}
    ]},
    {"smiles": "C[C@@H](O)c1nc2cnc3[nH]ccc3c2n1N1CCC(CC#N)CC1", "note": "[Crystalline form M, (R)-2-(1-(2-(1-hydroxyethyl)imidazo[4,5-d]pyrrolo[2,3-b]pyridine-1(6H)-yl)piperidin-4-yl)acetonitrile]", "values": [
      {"measurement": "stability under ambient temperature and humidity", "setting": "[3]", "result": "unstable"},
      {"measurement": "crystal form after storage (XRPD)", "setting": "[3]; 25° C., 55% RH, 35 days", "result": "transformed into the crystalline form A"}
    ]},
    {"smiles": "C[C@@H](O)c1nc2cnc3[nH]ccc3c2n1N1CCC(CC#N)CC1", "note": "[Crystalline form Q, (R)-2-(1-(2-(1-hydroxyethyl)imidazo[4,5-d]pyrrolo[2,3-b]pyridine-1(6H)-yl)piperidin-4-yl)acetonitrile]", "values": [
      {"measurement": "Changes in Crystal form", "setting": "[4]; FaSSIF, 1 h", "result": "no change"},
      {"measurement": "pH", "setting": "[4]; FaSSIF, 1 h", "result": 6.45},
      {"measurement": "pH", "setting": "[4]; FaSSIF, 4 h", "result": 6.40},
      {"measurement": "Changes in Crystal form", "setting": "[4]; FaSSIF, 24 h", "result": "no change"},
      {"measurement": "pH", "setting": "[4]; FaSSIF, 24 h", "result": 6.49},
      {"measurement": "pH", "setting": "[4]; FeSSIF, 1 h", "result": 4.96},
      {"measurement": "pH", "setting": "[4]; FeSSIF, 4 h", "result": 4.98},
      {"measurement": "Changes in Crystal form", "setting": "[4]; FeSSIF, 24 h", "result": "no change"},
      {"measurement": "pH", "setting": "[4]; FeSSIF, 24 h", "result": 5.00},
      {"measurement": "Changes in Crystal form", "setting": "[4]; SGF, 1 h", "result": "no change"},
      {"measurement": "pH", "setting": "[4]; SGF, 1 h", "result": 2.60},
      {"measurement": "pH", "setting": "[4]; SGF, 4 h", "result": 2.98},
      {"measurement": "Changes in Crystal form", "setting": "[4]; SGF, 24 h", "result": "no change"},
      {"measurement": "pH", "setting": "[4]; SGF, 24 h", "result": 2.71},
      {"measurement": "crystal form stability when suspended and stirred", "setting": "[4]; SGF/FeSSIF/FeSSIF, 24 hours", "result": "stable"},
      {"measurement": "solid-state stability (conclusion)", "setting": "[5]", "result": "good solid-state stability"},
      {"measurement": "Purity (%)", "setting": "[5]; 1 week, 25° C./60% RH", "result": 99.80, "unit": "%"},
      {"measurement": "Purity (%)", "setting": "[5]; 1 week, 40° C./75% RH", "result": 99.93, "unit": "%"},
      {"measurement": "Purity (%)", "setting": "[5]; 1 week, 60° C.", "result": 99.91, "unit": "%"},
      {"measurement": "Crystal form changes", "setting": "[5]; 1 week, 25° C./60% RH, 40° C./75% RH, 60° C.", "result": "no change"},
      {"measurement": "Purity (%)", "setting": "[5]; 2 week, 25° C./60% RH", "result": 99.87, "unit": "%"},
      {"measurement": "Purity (%)", "setting": "[5]; 2 week, 40° C./75% RH", "result": 99.87, "unit": "%"},
      {"measurement": "Purity (%)", "setting": "[5]; 2 week, 60° C.", "result": 99.92, "unit": "%"},
      {"measurement": "Crystal form changes", "setting": "[5]; 2 week, 25° C./60% RH, 40° C./75% RH, 60° C.", "result": "no change"},
      {"measurement": "change in the crystalline form (XRPD)", "setting": "[5]; after one week and two weeks of storage under the selected conditions", "result": "no change"},
      {"measurement": "change in purity", "setting": "[5]; after one week and two weeks under the selected conditions", "result": "no significant change"},
      {"measurement": "Starting sample Purity (%)", "setting": "[5]; starting sample", "result": 99.87, "unit": "%"},
      {"measurement": "stability under accelerated test conditions (content, total impurities, XRPD)", "setting": "[2]", "result": "better stability"}
    ]},
    {"smiles": "C[C@@H](O)c1nc2cnc3[nH]ccc3c2n1N1CCC(CC#N)CC1", "note": "[Crystalline form S, (R)-2-(1-(2-(1-hydroxyethyl)imidazo[4,5-d]pyrrolo[2,3-b]pyridine-1(6H)-yl)piperidin-4-yl)acetonitrile]", "values": [
      {"measurement": "crystal form after heating (XRPD)", "setting": "[1]; heated to 215° C. under N2, cooled to room temperature", "result": "converted into crystalline form A"}
    ]}
  ]
}
